# Test results published in PMC11681159, “Bee pollen peptides as potent tyrosinase inhibitors with anti-melanogenesis effects in murine b16f10 melanoma cells and zebrafish embryos” (Scientific Reports, 2024).
# Legend:
# human TYR = system: human TYR; parameters: method as in PMID 19440221; conditions: cited from earlier work
# mushroom TYR = system: mushroom TYR; parameters: method as in PMID 19440221; conditions: cited from earlier work
# Text: Abu Ubeid et al.[51]. conducted the screening of an internal library to identify the active oligopeptides capable of inhibiting TYR in mushrooms.
# human melanocytes = system: human melanocytes; parameters: method as in PMID 19440221; conditions: 100 µM, seven days; cited from earlier work
# TYR (mono-phenolase) = conditions: cited from earlier work
# Text: In order to check our own hypothesis concerning the ability of the peptide VY-9 to inhibit TYR, we created a synthetic peptide with a matching sequence to test the inhibition in the case of both mono-phenolase and di-phenolase forms. […] Ge et al.[34]. noting that hydrophobic interactions with hydrophobic side chains located at the active sites of TYR could be increased by inhibitors which have aromatic ring structures. […] For instance, Schurink et al.[38]. performed the screening of seven different peptides offering TYR inhibition from protein ... || In order to understand the VY-9 peptide mechanism for TYR inhibition, the inhibition mode was investigated through the analysis of Lineweaver-Burk plots. The plots can be seen in Fig. 3a-d, where four lines of differing gradients meet at the same intersection point for the vertical coordinate at varying concentrations of the VY-9 peptide.
# TYR (di-phenolase) = conditions: cited from earlier work
# Text: In order to check our own hypothesis concerning the ability of the peptide VY-9 to inhibit TYR, we created a synthetic peptide with a matching sequence to test the inhibition in the case of both mono-phenolase and di-phenolase forms. […] The plots can be seen in Fig. 3a-d, where four lines of differing gradients meet at the same intersection point for the vertical coordinate at varying concentrations of the VY-9 peptide.
# zebrafish embryos = assay: Melanin inhibitory assay in zebrafish embryos; format: in vivo; conditions: PTU 0.0015%, vs control
# Protocol: To perform the test of acute toxicity, a total of 20 fertilized zebrafish embryos were collected at around 4 h after fertilization and added to each well in a 12-well plate. These embryos then underwent treatment using different quantities of […] (2, 4, 6, 8, and 10 µM), while the negative control was distilled water and the positive control was 3,4-dichloroaniline. Incubation of the plate then took place until 48 h after fertilization at a temperature of 28.5 ± 1 °C. The test solutions were refreshed at 24 h after fertilization to allow the counting and removal of any dead embryos. Following exposure, a stereomicroscope (SZX16, Olympus, Japan) was used to record the embryo morphological effects. Meanwhile, a slightly modified version of a previously described melanin inhibitory assay was carried out[30]. The embryos were then homogenized using a cold lysis buffer (PBS pH 7.4, 1% Triton-X and 1% DMSF). The lysate then underwent 10 min of sonication before being placed in a centrifuge for 5 min at 10,000×g. The pellet was then removed from the centrifuge and dissolved in 200 µL of 1 N NaOH for 1 h at a temperature of 85 °C. This sample was subsequently vortexed and placed in the centrifuge for a further 5 min at 10,000×g. A microplate reader (Spectramax M5, Molecular Devices, USA) was then employed to determine the supernatant absorbance at 490 nm. Melanin content levels could then by calibrated by using the protein amount, and were reported in the form of a percentage compared to the untreated control. In the melanin inhibitory assay, the positive control used was phenylthiourea (PTU) solution (0.0015%).
# skin = conditions: treatment of hyperpigmentation; cited from earlier work
# Text: In producing cosmetic products and functional foods, safety is of the highest priority during the formulation process.
# TYR = conditions: cited from earlier work
# Text: TIPs are now widely prepared via enzymatic hydrolysis, due to the ease of controlling the process and the absence of extreme reaction conditions. There are many commercially produced enzymes which are available to support TIP production, among which are trypsin, chymotrypsin, flavourzyme, alkaline protease, neutral protease, papain, and so forth. It is understood that different enzymes can differ in their hydrolytic impact upon a given material because the binding specificity between substrate and enzymes will vary. […] Further fractionation of the MW < 0.65 kDa ultrafiltrated fraction can be carried out by SEC using a Superdex 30 Increase column with a separation range of 100-7,000 Da. […] Where hydrophobic amino acids appear at each end of the peptide chain, this increases the interactivity with the copper active sites of TYR. Furthermore, it was reported by Wang et al.[33]. that a low-molecular-weight (700-1,700 Da) gelatin hydrolysate derived from the sea cucumber wall offered 55.7% hydrophobic amino acids. While the exterior environme ... || (+ 2 further places)
# [1] = presence of water or oxygen; cited from earlier work
# Text: (§1) One role of TYR, which is a binuclear copper enzyme, is to regulate melanogenesis. It acts as a catalyst for the hydroxylation of tyrosine and the oxidation of 3, 4-dihydroxyphenylalanine (L-DOPA) to o-dopaquinone which are the rate limiting reactions which occur during the synthesis of melanin. Skin color is dependent upon the level of melanin synthesis as well as the type of melanin and the way it is distributed through the keratinocytes. Achieving effective inhibition of TYR with minimal adverse side effects has remained a longstanding challenge within the realms of dermatological and cosme ...
# cells = conditions: cited from earlier work
# Text: as §1
# melanoma cells = conditions: 500 µM; cited from earlier work
# B16F10 melanoma cells = assay: Melanin content assay in B16F10 cells; format: cell-based, mouse; conditions: arbutin 0.2 mM, 48 h, 405 nm
# Protocol: In order to assess melanin content, culture flasks were used to grow B16F10 cells (1 × 10^5 cells/flask) for 24 h. […] Cell harvesting was conducted by trypsinization and the cells were then rinsed twice in cold PBS. The cell pellets were then dissolved in 0.3 mL of 1 N NaOH to produce solutions which were heated to 90 °C for a one-hour period. The lysates were then placed in a centrifuge for 10 min at 3,000 × g whereupon a microplate reader was used to assess the melanin quantity at 405 nm. The protein content in the supernatant was evaluated using the Bradford protein assay with the findings presented in the form of a percentage of the control. Arbutin (0.2 mM) served as the positive control. Each trial was carried out in triplicate, with results presented in the form of mean ± standard deviation.
# A375 melanoma cells = conditions: 0.5-1 mM; cited from earlier work
molecule,measurement,setting,value
RADSRADC [oligopeptide of an internal library],human TYR inhibition vs hydroquinone,human TYR,to a greater extent than was the case with hydroquinone
same,IC50,mushroom TYR,123 µM
same,reduction in melanin content,human melanocytes,27%
"YRSRKYSSWY [P4, peptide from an earlier study]",human TYR inhibition vs hydroquinone,human TYR,to a greater extent than was the case with hydroquinone
same,IC50,mushroom TYR,40 µM
same,reduction in melanin content,human melanocytes,43%
"HPTSEVY [CT-3, rice bran protein hydrolysate peptide]","TYR inhibition, mono-phenolase tyrosine substrate reaction",TYR (mono-phenolase),notable TYR inhibition
same,"TYR inhibition, di-phenolase L-DOPA substrate reaction",TYR (di-phenolase),did not do so in the di-phenolase L-DOPA substrate reaction
"NC(=S)Nc1ccccc1 [PTU, phenylthiourea, reference compound]",melanin content,zebrafish embryos,differed significantly (p < 0.01) to the control
MRSRERSSWY [TH10],IC50,TYR (mono-phenolase); read-out: IC50 (tyrosine substrate of TYR),102 µM
Oc1ccc(O)cc1 [hydroquinone],undesirable side effects,skin,"contact dermatitis, irritation of the skin, and exogenous ochronosis"
same,IC50,mushroom TYR,680 µM
TIPPPT,IC50 against TYR,TYR,7590 µg/mL
"HGGEGGRPY [CT-1, rice bran protein hydrolysate peptide]","TYR inhibition, mono-phenolase tyrosine substrate reaction",TYR (mono-phenolase),notable TYR inhibition
same,"TYR inhibition, di-phenolase L-DOPA substrate reaction",TYR (di-phenolase),did not do so in the di-phenolase L-DOPA substrate reaction
O=S(O)O [sulfite],stability,[1],instability in the presence of water or oxygen
same,toxicity towards cells,cells,high degree of toxicity towards cells
IQSPHFF [from Phage Display Library],Ki,TYR (di-phenolase); competitive,765 µM
same,inhibition type,TYR (di-phenolase); di-phenolase,competitive inhibitor
IIPFIF,IC50 against TYR,TYR,6160 µg/mL
GYSLGNWVCAAK [obtained from egg white protein],inhibition type,TYR,competitively inhibit TYR
"LQPSHY [CT-2, rice bran protein hydrolysate peptide]",cytotoxic effects,melanoma cells,no cytotoxic effects were recorded
same,melanogenesis inhibition,melanoma cells,> 50%
same,"TYR inhibition, mono-phenolase tyrosine substrate reaction",TYR (mono-phenolase),notable TYR inhibition
same,"TYR inhibition, di-phenolase L-DOPA substrate reaction",TYR (di-phenolase),did not do so in the di-phenolase L-DOPA substrate reaction
"OC[C@H]1O[C@@H](Oc2ccc(O)cc2)[C@H](O)[C@@H](O)[C@@H]1O [arbutin, reference compound]",reduction in melanin content,B16F10 melanoma cells,54.34%
KFEKKFEK [oligopeptide of an internal library],IC50,mushroom TYR,3600 µM
SFLLRN [oligopeptide of an internal library],IC50,mushroom TYR,8000 µM
ECGYF,TYR inhibition vs arbutin and glutathione,TYR,exceeded those of arbutin and glutathione
same,IC50,TYR; read-out: TYR inhibition IC50,460 µM
same,melanin level in A375 cells,A375 melanoma cells,able to lower the melanin levels in cultured A375 melanoma cells more effectively than arbutin or glutathione
ILFTLL,IC50 against TYR,TYR,9250 µg/mL
O=c1cc(CO)occ1O [kojic acid],stability,[1],instability in the presence of water or oxygen
same,toxicity towards cells,cells,high degree of toxicity towards cells
